Assays:
full-length human PHD2 = full-length human PHD2 (Homo sapiens (Human), UniProt Q9GZT9); assay: TR-FRET assay for PHD enzymes, PHD2; conditions: read-out: PHD2 IC50; TR-FRET, 5 nM PHD2, 1 μM 2-OG
Excerpt: Time-resolved fluorescence resonance energy transfer (TR-FRET) assay was utilized to determine the enzymatic half maximal inhibitory concentration (IC50) value of PHD inhibitors against the full-length human prolyl-4-hydroxylase domain (PHD) enzymes, PHD1, PHD2, and PHD3. The TR-FRET assay was developed based on the specific binding of hydroxylated HIF-1α peptide with the complex formed by VHL, EloB and EloC (VBC), to generate a fluorescent signal. Terbium (Tb)-Donor (monoclonal antibody anti-6His-Tb-cryptate Gold) and D2-acceptor (streptavidin [SA]-D2) of TR-FRET are linked to the VBC complex and to HIF-1α peptide, respectively. The VBC complex binds specifically to the HIF-1α peptide when it is hydroxylated, allowing energy transfer from TR-FRET donor to acceptor (FIG. 1). […] The plates were incubated for 30 minutes at room temperature without rotation. […] TR-FRET assays were performed in triplicate at each concentration of compound and the assays were repeated independently three times.

full-length human PHD3 = full-length human PHD3 (Homo sapiens (Human), UniProt Q9H6Z9); assay: TR-FRET assay for PHD enzymes, PHD3; format: biochemical; conditions: TR-FRET, 35 nM PHD3, 1 μM 2-OG
Excerpt: Recombinant human PHD3 protein (molecular weight 31.1 kDa) was purchased from Active Motif (Carlsbad, CA, USA). It was expressed in E. coli as the full-length protein (NCBI accession number NP_071356.1) with an N-terminal 6-His tag (catalog #81033, Lot #24417001).

full-length human PHD1 = full-length human PHD1 (Homo sapiens (Human), UniProt Q96KS0); assay: TR-FRET assay for PHD enzymes, PHD1; format: biochemical; conditions: TR-FRET, 15 nM PHD1, 1 μM 2-OG
Chain of full-length human PHD1 (Q96KS0 whole entry): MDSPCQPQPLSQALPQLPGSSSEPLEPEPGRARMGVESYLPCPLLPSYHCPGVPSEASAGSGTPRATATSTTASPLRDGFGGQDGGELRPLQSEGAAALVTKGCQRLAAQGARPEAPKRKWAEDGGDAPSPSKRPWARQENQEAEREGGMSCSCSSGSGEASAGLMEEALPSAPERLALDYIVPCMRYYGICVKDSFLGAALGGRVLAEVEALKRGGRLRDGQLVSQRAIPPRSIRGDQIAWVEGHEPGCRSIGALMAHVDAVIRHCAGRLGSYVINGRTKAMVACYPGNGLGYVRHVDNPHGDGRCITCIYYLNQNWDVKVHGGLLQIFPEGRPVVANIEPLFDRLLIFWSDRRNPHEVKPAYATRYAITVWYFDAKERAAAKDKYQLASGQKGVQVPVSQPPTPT
Excerpt: PHD1 was expressed in a baculovirus expression system as the full-length protein (NCBI accession number NP_542770.2) with an N-terminal FLAG tag (molecular weight 44.9 kDa).

Measured: IC50

Chain of full-length human PHD2 (Q9GZT9 whole entry): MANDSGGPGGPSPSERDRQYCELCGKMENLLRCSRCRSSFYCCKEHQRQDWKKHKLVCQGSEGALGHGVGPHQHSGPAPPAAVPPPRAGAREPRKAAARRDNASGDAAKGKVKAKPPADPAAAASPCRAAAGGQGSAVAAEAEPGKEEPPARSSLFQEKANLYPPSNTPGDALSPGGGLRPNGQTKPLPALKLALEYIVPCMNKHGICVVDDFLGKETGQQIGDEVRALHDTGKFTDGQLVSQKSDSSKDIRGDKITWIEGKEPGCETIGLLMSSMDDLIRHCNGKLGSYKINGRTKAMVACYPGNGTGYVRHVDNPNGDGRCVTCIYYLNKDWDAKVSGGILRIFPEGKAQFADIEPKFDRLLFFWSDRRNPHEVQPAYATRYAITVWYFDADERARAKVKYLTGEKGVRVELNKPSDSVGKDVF
Chain of full-length human PHD3 (Q9H6Z9 whole entry): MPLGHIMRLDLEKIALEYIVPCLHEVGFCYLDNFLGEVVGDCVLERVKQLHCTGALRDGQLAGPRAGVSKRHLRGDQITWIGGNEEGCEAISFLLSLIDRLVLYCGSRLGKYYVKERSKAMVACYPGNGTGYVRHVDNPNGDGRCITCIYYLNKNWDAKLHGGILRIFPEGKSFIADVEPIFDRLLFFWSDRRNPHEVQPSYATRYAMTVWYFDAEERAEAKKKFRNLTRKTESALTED

Cc1c(-c2cn(-c3ccc(F)cc3)nn2)cnc(C(=O)NCC(=O)O)c1O [Compound 41, (5-(1-(4-fluorophenyl)-1H-1,2,3-triazol-4-yl)-3-hydroxy-4-methylpicolinoyl)glycine]
< 100 nM: all assays above

Cc1c(-c2cn(CCc3ccc(Cl)cc3)nn2)cnc(C(=O)NCC(=O)O)c1O [Compound 42, (5-(1-(4-chlorophenethyl)-1H-1,2,3-triazol-4-yl)-3-hydroxy-4-methylpicolinoyl)glycine]
< 100 nM: all assays above

Cc1c(-c2cn(CCCc3ccc(Cl)cc3)nn2)cnc(C(=O)NCC(=O)O)c1O [Compound 43, (5-(1-(3-(4-chlorophenyl)propyl)-1H-1,2,3-triazol-4-yl)-3-hydroxy-4-methylpicolinoyl)glycine]
< 100 nM: all assays above

Cc1c(-c2cn(-c3ccccc3)nn2)cnc(C(=O)NCC(=O)O)c1O [Compound 44, (3-hydroxy-4-methyl-5-(1-phenyl-1H-1,2,3-triazol-4-yl)picolinoyl)glycine]
< 100 nM: all assays above
